# Experimental data reported in patent US8952024B2, “Herbicidal pyrimidone derivatives” (E I du Pont de Nemours and Company, priority 2009, dated 2015).
# Columns and labels:
# Assay in all cases: Test C plant response
# Format in all cases: in vivo
# Conditions in all cases: Postemergence, scale 0 to 100
# [1] = system: spring wheat (Triticum aestivum)
# Procedure, shortened: (§1)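 Efficacy is a visual percent-control score (0 none, 100 complete), judged against controls 14 days after application. Compounds go on in a non-phytotoxic solvent carrier with surfactant. A dash marks a missing result.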
# [2] = system: bromegrass (downy bromegrass, Bromus tectorum)
# Procedure, shortened: as §1
# [3] = system: spring barley (Hordeum vulgare)
# Procedure, shortened: as §1
# [4] = system: wild mustard (Sinapis arvensis)
# Procedure, shortened: as §1
# [5] = system: buckwheat (wild buckwheat, Polygonum convolvulus)
# Procedure, shortened: as §1
# [6] = system: deadnettle (henbit deadnettle, Lamium amplexicaule)
# Procedure, shortened: as §1
# [7] = system: Russian thistle (Salsola iberica)
# Procedure, shortened: as §1
# kochia (Kochia scoparia) = system: kochia (Kochia scoparia)
# Procedure, shortened: as §1
# [8] = system: oilseed rape (Brassica napus)
# Procedure, shortened: as §1
# [9] = system: bluegrass (annual bluegrass, Poa annua)
# Procedure, shortened: as §1
# [10] = system: field poppy (Papaver rhoeas)
# Procedure, shortened: as §1
# [11] = system: pigweed (Amaranthus retroflexus)
# Procedure, shortened: as §1
# wild oat (Avena fatua) = system: wild oat (Avena fatua)
# Procedure, shortened: as §1
# [12] = system: chickweed (common chickweed, Stellaria media)
# Procedure, shortened: as §1
# [13] = system: lambsquarters (Chenopodium album)
# Procedure, shortened: as §1
# [14] = system: green foxtail (Setaria viridis)
# Procedure, shortened: as §1
# [15] = system: windgrass (Apera spica-venti)
# Procedure, shortened: as §1
# [16] = system: wild radish (Raphanus raphanistrum)
# Procedure, shortened: as §1
# [17] = system: blackgrass (Alopecurus myosuroides)
# Procedure, shortened: as §1
# [18] = system: winter wheat (Triticum aestivum)
# Procedure, shortened: as §1
# [19] = system: field violet (Viola arvensis)
# Procedure, shortened: as §1
compound,measurement,setting,value
"COc1ccc(-n2c(-c3ccccc3)ncc(C(=O)C3=C(O)CCCC3=O)c2=O)cc1 [Compound 4, 5-[(2-hydroxy-6-oxo-cyclohexen-1-yl)carbonyl]-3-(4-methoxyphenyl)-2-phenyl-4(3H)-pyrimidinone]","Plant response rating: Wheat, Spring",[1]; 31 g ai/ha,15
same,"Plant response rating: Wheat, Spring",[1]; 125 g ai/ha,20
same,"Plant response rating: Bromegrass, Downy",[2]; 31 g ai/ha,35
same,"Plant response rating: Bromegrass, Downy",[2]; 125 g ai/ha,40
same,"Plant response rating: Barley, Spring",[3]; 31 g ai/ha,10
same,"Plant response rating: Barley, Spring",[3]; 125 g ai/ha,15
same,"Plant response rating: Mustard, Wild",[4]; 31 g ai/ha,98
same,"Plant response rating: Mustard, Wild",[4]; 125 g ai/ha,100
same,"Plant response rating: Buckwheat, Wild",[5]; 31 g ai/ha,95
same,"Plant response rating: Buckwheat, Wild",[5]; 125 g ai/ha,100
same,Plant response rating: Deadnettle,[6]; 31 g ai/ha,98
same,Plant response rating: Deadnettle,[6]; 125 g ai/ha,100
same,Plant response rating: Russian Thistle,[7]; 31 g ai/ha,70
same,Plant response rating: Russian Thistle,[7]; 125 g ai/ha,95
same,Plant response rating: Kochia,kochia (Kochia scoparia); 31 g ai/ha,90
same,Plant response rating: Kochia,kochia (Kochia scoparia); 125 g ai/ha,95
same,Plant response rating: Oilseed Rape,[8]; 31 g ai/ha,90
same,Plant response rating: Oilseed Rape,[8]; 125 g ai/ha,100
same,Plant response rating: Bluegrass,[9]; 31 g ai/ha,35
same,Plant response rating: Bluegrass,[9]; 125 g ai/ha,50
same,Plant response rating: Field Poppy,[10]; 31 g ai/ha,30
same,Plant response rating: Field Poppy,[10]; 125 g ai/ha,50
same,Plant response rating: Pigweed,[11]; 31 g ai/ha,95
same,Plant response rating: Pigweed,[11]; 125 g ai/ha,100
same,"Plant response rating: Oat, Wild",wild oat (Avena fatua); 31 g ai/ha,20
same,"Plant response rating: Oat, Wild",wild oat (Avena fatua); 125 g ai/ha,50
same,Plant response rating: Chickweed,[12]; 31 g ai/ha,98
same,Plant response rating: Chickweed,[12]; 125 g ai/ha,100
same,Plant response rating: Lambsquarters,[13]; 31 g ai/ha,100
same,Plant response rating: Lambsquarters,[13]; 125 g ai/ha,100
same,"Plant response rating: Foxtail, Green",[14]; 31 g ai/ha,70
same,"Plant response rating: Foxtail, Green",[14]; 125 g ai/ha,95
same,Plant response rating: Windgrass,[15]; 31 g ai/ha,35
same,Plant response rating: Windgrass,[15]; 125 g ai/ha,95
same,"Plant response rating: Radish, Wild",[16]; 31 g ai/ha,80
same,"Plant response rating: Radish, Wild",[16]; 125 g ai/ha,95
same,Plant response rating: Blackgrass,[17]; 31 g ai/ha,20
same,Plant response rating: Blackgrass,[17]; 125 g ai/ha,40
same,"Plant response rating: Wheat, Winter",[18]; 31 g ai/ha,0
same,"Plant response rating: Wheat, Winter",[18]; 125 g ai/ha,20
same,Plant response rating: Field Violet,[19]; 31 g ai/ha,40
same,Plant response rating: Field Violet,[19]; 125 g ai/ha,60
Cc1ccc(-n2c(-c3ccccc3)ncc(C(=O)C3=C(O)CCCC3=O)c2=O)cc1 [Compound 8],"Plant response rating: Wheat, Spring",[1]; 31 g ai/ha,5
same,"Plant response rating: Wheat, Spring",[1]; 16 g ai/ha,5
same,"Plant response rating: Wheat, Spring",[1]; 62 g ai/ha,5
same,"Plant response rating: Wheat, Spring",[1]; 125 g ai/ha,20
same,"Plant response rating: Bromegrass, Downy",[2]; 31 g ai/ha,25
same,"Plant response rating: Bromegrass, Downy",[2]; 16 g ai/ha,10
same,"Plant response rating: Bromegrass, Downy",[2]; 62 g ai/ha,35
same,"Plant response rating: Bromegrass, Downy",[2]; 125 g ai/ha,40
same,"Plant response rating: Barley, Spring",[3]; 31 g ai/ha,10
same,"Plant response rating: Barley, Spring",[3]; 16 g ai/ha,0
same,"Plant response rating: Barley, Spring",[3]; 62 g ai/ha,20
same,"Plant response rating: Barley, Spring",[3]; 125 g ai/ha,30
same,"Plant response rating: Mustard, Wild",[4]; 31 g ai/ha,95
same,"Plant response rating: Mustard, Wild",[4]; 62 g ai/ha,98
same,"Plant response rating: Mustard, Wild",[4]; 125 g ai/ha,98
same,"Plant response rating: Buckwheat, Wild",[5]; 31 g ai/ha,65
same,"Plant response rating: Buckwheat, Wild",[5]; 16 g ai/ha,65
same,"Plant response rating: Buckwheat, Wild",[5]; 62 g ai/ha,65
same,"Plant response rating: Buckwheat, Wild",[5]; 125 g ai/ha,65
same,Plant response rating: Deadnettle,[6]; 31 g ai/ha,95
same,Plant response rating: Deadnettle,[6]; 16 g ai/ha,85
same,Plant response rating: Deadnettle,[6]; 62 g ai/ha,98
same,Plant response rating: Deadnettle,[6]; 125 g ai/ha,100
same,Plant response rating: Russian Thistle,[7]; 31 g ai/ha,90
same,Plant response rating: Russian Thistle,[7]; 16 g ai/ha,90
same,Plant response rating: Russian Thistle,[7]; 62 g ai/ha,95
same,Plant response rating: Russian Thistle,[7]; 125 g ai/ha,95
same,Plant response rating: Kochia,kochia (Kochia scoparia); 31 g ai/ha,70
same,Plant response rating: Kochia,kochia (Kochia scoparia); 16 g ai/ha,65
same,Plant response rating: Kochia,kochia (Kochia scoparia); 62 g ai/ha,85
same,Plant response rating: Kochia,kochia (Kochia scoparia); 125 g ai/ha,90
same,Plant response rating: Oilseed Rape,[8]; 31 g ai/ha,90
same,Plant response rating: Oilseed Rape,[8]; 16 g ai/ha,80
same,Plant response rating: Oilseed Rape,[8]; 62 g ai/ha,98
same,Plant response rating: Oilseed Rape,[8]; 125 g ai/ha,100
same,Plant response rating: Bluegrass,[9]; 31 g ai/ha,25
same,Plant response rating: Bluegrass,[9]; 16 g ai/ha,5
same,Plant response rating: Bluegrass,[9]; 62 g ai/ha,50
same,Plant response rating: Bluegrass,[9]; 125 g ai/ha,75
same,Plant response rating: Field Poppy,[10]; 31 g ai/ha,20
same,Plant response rating: Field Poppy,[10]; 16 g ai/ha,0
same,Plant response rating: Field Poppy,[10]; 62 g ai/ha,40
same,Plant response rating: Field Poppy,[10]; 125 g ai/ha,60
same,Plant response rating: Pigweed,[11]; 31 g ai/ha,95
same,Plant response rating: Pigweed,[11]; 16 g ai/ha,95
same,Plant response rating: Pigweed,[11]; 62 g ai/ha,98
same,Plant response rating: Pigweed,[11]; 125 g ai/ha,98
same,"Plant response rating: Oat, Wild",wild oat (Avena fatua); 31 g ai/ha,20
same,"Plant response rating: Oat, Wild",wild oat (Avena fatua); 16 g ai/ha,20
same,"Plant response rating: Oat, Wild",wild oat (Avena fatua); 62 g ai/ha,30
same,"Plant response rating: Oat, Wild",wild oat (Avena fatua); 125 g ai/ha,30
same,Plant response rating: Chickweed,[12]; 31 g ai/ha,95
same,Plant response rating: Chickweed,[12]; 16 g ai/ha,95
same,Plant response rating: Chickweed,[12]; 62 g ai/ha,95
same,Plant response rating: Chickweed,[12]; 125 g ai/ha,98
same,Plant response rating: Lambsquarters,[13]; 31 g ai/ha,98
same,Plant response rating: Lambsquarters,[13]; 16 g ai/ha,98
same,Plant response rating: Lambsquarters,[13]; 62 g ai/ha,98
same,Plant response rating: Lambsquarters,[13]; 125 g ai/ha,100
same,"Plant response rating: Foxtail, Green",[14]; 31 g ai/ha,95
same,"Plant response rating: Foxtail, Green",[14]; 16 g ai/ha,95
same,"Plant response rating: Foxtail, Green",[14]; 62 g ai/ha,95
same,"Plant response rating: Foxtail, Green",[14]; 125 g ai/ha,98
same,Plant response rating: Windgrass,[15]; 31 g ai/ha,10
same,Plant response rating: Windgrass,[15]; 16 g ai/ha,0
same,Plant response rating: Windgrass,[15]; 62 g ai/ha,20
same,Plant response rating: Windgrass,[15]; 125 g ai/ha,60
same,"Plant response rating: Radish, Wild",[16]; 31 g ai/ha,95
same,"Plant response rating: Radish, Wild",[16]; 16 g ai/ha,85
same,"Plant response rating: Radish, Wild",[16]; 62 g ai/ha,98
same,"Plant response rating: Radish, Wild",[16]; 125 g ai/ha,100
same,Plant response rating: Blackgrass,[17]; 31 g ai/ha,30
same,Plant response rating: Blackgrass,[17]; 16 g ai/ha,20
same,Plant response rating: Blackgrass,[17]; 62 g ai/ha,35
same,Plant response rating: Blackgrass,[17]; 125 g ai/ha,35
same,"Plant response rating: Wheat, Winter",[18]; 31 g ai/ha,10
same,"Plant response rating: Wheat, Winter",[18]; 16 g ai/ha,10
same,"Plant response rating: Wheat, Winter",[18]; 62 g ai/ha,25
same,"Plant response rating: Wheat, Winter",[18]; 125 g ai/ha,30
same,Plant response rating: Field Violet,[19]; 31 g ai/ha,65
same,Plant response rating: Field Violet,[19]; 16 g ai/ha,10
same,Plant response rating: Field Violet,[19]; 62 g ai/ha,65
same,Plant response rating: Field Violet,[19]; 125 g ai/ha,65
